Assay results published in patent US12208108B2, “Drug targets of delayed aging and human brain diseases” (Texas Tech University System, priority 2016, dated 2025).

What was measured:
[1] = tested on: mutant APPSwe/Ind mouse neuroblastoma (N2a) cells; experiment: Co-immunoprecipitation and immunoblotting of mutant APPSwe/Ind cells; format: cell-based; conditions: DDQ 250 nM 24 hrs vs mutant APPSwe/Ind cells untreated with DDQ
Description: Co-immunoprecipitation and immunoblotting analysis of mutant APPSwe/Ind cells treated with DDQ. To determine whether DDQ reduces the interaction of Aβ with Drp1 in mutant APPSwe/Ind cells, the inventors used mutant APPSwe/Ind cDNA construct transfected into mouse neuroblastoma (N2a) cells and further cells were treated with DDQ. The inventors performed immunoprecipitation with Aβ (6E10) antibody and immunoblotting analysis with 6E10 and the inventors also performed co-immunoprecipitation analysis with Aβ (6E10) antibody and immunoblotting analysis with Drp1 antibody. […] These findings further confirm that DDQ reduces full-length APP and 4 kDa Aβ and reduces interaction between Drp1 and Aβ.
(§1) Mutant APPSwe/Ind cells: The inventors purchased mutant APPSwe cDNA clone (pCAX-APPSwe/Ind) from Addgene—https://www.addgene.org and verified expression of mutant APP APPSwe/Ind cDNA and further sub-cloned into a mammalian expression vector (Arubala P. Reddy—unpublished observations). The inventors transfected mutant APPSwe/Ind cDNA into mouse neuroblastoma (N2a) cells for 24 hrs and after transfection, cells were treated with DDQ (250 nM) for 24 hrs. The inventors harvested mutant APPSwe/Ind cells treated and untreated with DDQ and prepared protein lysates and performed co-immunoprecipitation using Aβ (6E10) antibody and conducted immunoblotting analysis with 6E10 and Drp1 antibodies.
(§2) The inventors performed co-immunoprecipitation (co-IP) assays using the Dynabeads Kit for Immunoprecipitation (Invitrogen). Briefly, 50 μL of Dynabeads containing protein G was incubated with 10 μg 6E10 or 10 μg of the Drp1 antibodies (both mono- and polyclonal antibodies; Santa Cruz), with rotation, for 1 h at room temperature. The inventors used all the reagents and buffers provided in the kit. Details of antibodies used for co-IP and western blotting are given Table 5. The Dynabeads-Aβ complex was washed three times with a washing buffer and was then incubated overnight with 400 μg of protein at 4° C., with rotation. […]

SHSY5Y cells [2] = experiment: Lipid peroxidation assay (HNE); format: cell-based, Human
Description: Lipid peroxidation assay. Lipid peroxidates are unstable indicators of oxidative stress in neurons. 4-hydroxy-2-nonenol (HNE) is the final product of lipid peroxidation that was measured in the cell lysates from SHSY5Y cells of control and experimental treatments (n=4), using an HNE-His ELISA Kit (Cell BioLabs, Inc., San Diego, Calif.) as described in Manczak et al..

[3] = target: T1, interaction of Aβ with Drp1 (Homo sapiens, UniProt O00429); experiment: Co-immunoprecipitation of Aβ and Drp1 in SHSY5Y cells; format: cell-based
T1 construct: SHSY5Y cells incubated with Aβ peptide 1-42 (20 uM final concentration); Anaspec (Aβ 1-42 peptide); host or cells: SHSY5Y human neuroblastoma cells
Description: Co-immunoprecipitation and immunoblotting analysis using DDQ treated SHSY5Y cells+Aβ. To determine whether DDQ reduces the interaction of Aβ with Drp1 in Aβ incubated cells, the inventors performed co-immunoprecipitation analysis using the Drp1 antibody, and immunoblotting analysis using Aβ recognizing 6E10 antibody and protein lysates of DDQ pre-treated, DDQ post-treated and Aβ incubated cells.
SHSY5Y cells, mutant APPSwe/Ind cells and co-immunoprecipitation analysis. SHSY5Y cells: To determine whether Aβ interact with Drp1, the inventors used protein lysates from Aβ incubated (DDQ pre-treated, post-treated and untreated) SHSY5Y cells.
as §2

mutant APPSwe/Ind cells = experiment: Sandwich ELISA of Aβ40 and Aβ42; format: cell-based, mouse; conditions: DDQ treated vs DDQ untreated mutant APPSwe/Ind cells, protein lysates
Text: FIGS. 9A and 9B show sandwich ELISA analysis of Aβ40 and 42 in mutant APPSwe/Ind cells treated and untreated with DDQ. The inventors performed sandwich ELISA using protein lysates mutant APP cells treated and untreated with DDQ.
DDQ reduces soluble Aβ42 in mutant APPSwe/Ind cells treated with DDQ. To determine whether DDQ reduces Aβ levels, the inventors performed sandwich ELISA using protein lysates of mutant APPSwe/Ind cells treated with DDQ. […] These observations indicate that DDQ reduces Aβ42 levels in mutant APPSwe/Ind cells.
as §1

SHSY5Y cells [4] = experiment: Cytochrome oxidase activity; format: cell-based, Human
Description: Cytochrome oxidase activity. Cytochrome oxidase activity was measured in the mitochondria isolated from SHSY5Y cells of control and experimental treatments (n=4), as described in Manczak et al.^33. Enzyme activity was assayed spectrophotometrically using a Sigma Kit (Sigma-Aldrich) following manufacturer's instructions.

[5] = DDQ 250 nM 24 hrs vs untreated cells

T1 sequence (O00429 whole entry): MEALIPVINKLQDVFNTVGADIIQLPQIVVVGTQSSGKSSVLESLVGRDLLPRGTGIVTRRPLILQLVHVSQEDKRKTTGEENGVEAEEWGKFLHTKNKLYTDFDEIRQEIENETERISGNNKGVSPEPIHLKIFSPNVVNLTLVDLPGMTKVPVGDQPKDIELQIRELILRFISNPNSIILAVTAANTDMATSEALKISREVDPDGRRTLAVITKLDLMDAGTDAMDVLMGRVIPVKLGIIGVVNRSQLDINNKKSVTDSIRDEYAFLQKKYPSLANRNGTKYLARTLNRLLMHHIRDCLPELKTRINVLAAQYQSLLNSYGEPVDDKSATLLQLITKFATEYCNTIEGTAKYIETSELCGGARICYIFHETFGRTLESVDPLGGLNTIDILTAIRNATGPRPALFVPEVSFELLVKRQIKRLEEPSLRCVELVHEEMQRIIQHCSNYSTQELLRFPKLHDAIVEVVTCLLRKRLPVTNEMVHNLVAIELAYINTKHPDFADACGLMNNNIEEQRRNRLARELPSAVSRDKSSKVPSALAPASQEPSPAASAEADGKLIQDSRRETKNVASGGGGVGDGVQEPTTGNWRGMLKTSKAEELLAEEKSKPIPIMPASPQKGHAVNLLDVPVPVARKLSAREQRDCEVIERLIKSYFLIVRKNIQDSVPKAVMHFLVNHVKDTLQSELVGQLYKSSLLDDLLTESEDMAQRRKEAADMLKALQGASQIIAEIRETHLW

## CCOP(=O)(OCC)C(NCCc1ccc(O)c(O)c1)c1ccnc2ccccc12 (stereo not drawn) [DDQ, diethyl(3,4-dihydroxyphenethylamine)(quinolin-4-yl)methylphosphonate]
[1]
  4 kDa Aβ levels (IP 6E10, WB 6E10): reduced levels
  Drp1 levels (co-IP 6E10, WB Drp1): reduced levels
  full-length APP levels (IP 6E10, WB 6E10): reduced levels
SHSY5Y cells [2]; Aβ + DDQ (Aβ1-42 6 hrs, then DDQ 24 hrs) vs cells incubated with Aβ alone
  lipid peroxidation (4-hydroxy-nonenol) levels: significantly reduced levels
SHSY5Y cells [2]; [5]
  lipid peroxidation (4-hydroxy-nonenol) levels: significantly decreased levels
SHSY5Y cells [2]; DDQ + Aβ (DDQ 24 hrs, then Aβ1-42 6 hrs) vs cells incubated with Aβ alone
  lipid peroxidation (4-hydroxy-nonenol) levels: significantly reduced levels
[3]; DDQ post-treated (Aβ + DDQ) vs Aβ incubated cells
  interaction between Aβ and Drp1: reduced interaction
[3]; DDQ pre-treated (DDQ + Aβ) vs Aβ incubated cells
  interaction between Aβ and Drp1: reduced interaction
Mutant APPSwe/Ind cells
  Aβ40 levels: significantly increased
  Aβ42 levels: significantly decreased levels
SHSY5Y cells [4]; Aβ + DDQ (Aβ1-42 20 μM 6 hrs, then DDQ 24 hrs) vs untreated cells
  cytochrome oxidase activity: unchanged
SHSY5Y cells [4]; Aβ + DDQ (Aβ1-42 6 hrs, then DDQ 24 hrs) vs Aβ incubated cells
  cytochrome oxidase activity: increased
SHSY5Y cells [4]; [5]
  cytochrome oxidase activity: significantly increased levels
SHSY5Y cells [4]; DDQ + Aβ (DDQ 24 hrs, then Aβ1-42 6 hrs) vs Aβ incubated cells
  cytochrome oxidase activity: increased
SHSY5Y cells [4]; DDQ + Aβ (DDQ 24 hrs, then Aβ1-42 6 hrs) vs untreated cells
  cytochrome oxidase activity: unchanged
